The values that follow come from US20030055244A1, “Pyridyl-containing spirocyclic compounds as inhibitors of fibrinogen-dependent platelet aggregation” (priority 1999, published 2003).

SMILES strings stand for the structures. Read-outs that look alike come from different tables or passages of the source.

Assay [1] deals with human platelet-rich plasma. As to the kind of experiment: Platelet aggregation assay (Aggregation-Human PRP/ADP). It is filed as cell-based. On the procedure: Platelet-rich plasma was prepared from healthy human volunteers for use in determining inhibition of platelet aggregation by the compounds.
Platelet-rich plasma was prepared at room temperature by centrifugation of the citrated whole blood at 100 × g for twelve minutes. The platelet rich plasma contained approximately 200-400,000 platelets/μl.
Platelet aggregation was assayed in a 4-channel platelet aggregation profiler (PAP-4, Biodata, Hatboro, Pa.) according to the manufacturers directions. Inhibition of platelet aggregation was studied by adding varying amounts of adenosine diphosphate (ADP) to stirred human platelet-rich plasma. Specifically, the human platelet-rich plasma was incubated with the compound being tested for 1 minute at 37° C. prior to the addition of a variety of aggregating agents most often ADP 5 μM to 20 μM, but also 1 μg/ml collagen, 1 μM U46619 and 0.3 μM platelet activating factor.

In assay [2] the target is T1, GPIIb-IIIa (Homo sapiens, UniProt P05106+P08514).
T1 construct: Purified platelet GPIIb-IIIa receptor was prepared as described by Fitzgerald; from tissue; host or cells: platelets
T1 sequence (P08514 32-887 limits assumed): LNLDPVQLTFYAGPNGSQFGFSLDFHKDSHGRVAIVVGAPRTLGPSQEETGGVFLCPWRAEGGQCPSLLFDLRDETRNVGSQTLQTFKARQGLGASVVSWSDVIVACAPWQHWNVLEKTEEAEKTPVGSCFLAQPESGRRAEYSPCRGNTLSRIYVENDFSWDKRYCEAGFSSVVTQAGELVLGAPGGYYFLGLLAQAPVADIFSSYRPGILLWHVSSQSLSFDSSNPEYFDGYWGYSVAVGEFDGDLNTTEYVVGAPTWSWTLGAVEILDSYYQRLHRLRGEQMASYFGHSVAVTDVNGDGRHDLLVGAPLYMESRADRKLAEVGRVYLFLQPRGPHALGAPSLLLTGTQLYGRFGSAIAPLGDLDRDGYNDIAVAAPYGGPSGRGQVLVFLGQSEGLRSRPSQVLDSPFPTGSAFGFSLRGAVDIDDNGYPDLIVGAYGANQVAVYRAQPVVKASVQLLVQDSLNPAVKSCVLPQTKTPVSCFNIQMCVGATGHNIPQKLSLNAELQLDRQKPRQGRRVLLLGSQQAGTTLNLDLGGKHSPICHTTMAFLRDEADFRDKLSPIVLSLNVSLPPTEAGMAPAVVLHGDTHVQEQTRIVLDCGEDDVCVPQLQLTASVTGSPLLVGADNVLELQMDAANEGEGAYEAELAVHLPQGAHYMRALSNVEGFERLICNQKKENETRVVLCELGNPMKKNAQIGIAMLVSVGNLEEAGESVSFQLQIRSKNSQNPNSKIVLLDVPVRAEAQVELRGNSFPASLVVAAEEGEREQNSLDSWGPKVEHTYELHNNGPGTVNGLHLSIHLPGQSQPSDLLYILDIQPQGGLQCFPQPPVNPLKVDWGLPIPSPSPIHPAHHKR
T1 sequence (P08514 891-1039 limits assumed): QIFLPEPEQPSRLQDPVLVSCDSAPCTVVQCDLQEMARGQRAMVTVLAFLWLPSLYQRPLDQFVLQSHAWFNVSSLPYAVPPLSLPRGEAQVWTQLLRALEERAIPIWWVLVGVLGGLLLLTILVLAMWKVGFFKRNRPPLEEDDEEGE
T1 sequence (P05106 27-788): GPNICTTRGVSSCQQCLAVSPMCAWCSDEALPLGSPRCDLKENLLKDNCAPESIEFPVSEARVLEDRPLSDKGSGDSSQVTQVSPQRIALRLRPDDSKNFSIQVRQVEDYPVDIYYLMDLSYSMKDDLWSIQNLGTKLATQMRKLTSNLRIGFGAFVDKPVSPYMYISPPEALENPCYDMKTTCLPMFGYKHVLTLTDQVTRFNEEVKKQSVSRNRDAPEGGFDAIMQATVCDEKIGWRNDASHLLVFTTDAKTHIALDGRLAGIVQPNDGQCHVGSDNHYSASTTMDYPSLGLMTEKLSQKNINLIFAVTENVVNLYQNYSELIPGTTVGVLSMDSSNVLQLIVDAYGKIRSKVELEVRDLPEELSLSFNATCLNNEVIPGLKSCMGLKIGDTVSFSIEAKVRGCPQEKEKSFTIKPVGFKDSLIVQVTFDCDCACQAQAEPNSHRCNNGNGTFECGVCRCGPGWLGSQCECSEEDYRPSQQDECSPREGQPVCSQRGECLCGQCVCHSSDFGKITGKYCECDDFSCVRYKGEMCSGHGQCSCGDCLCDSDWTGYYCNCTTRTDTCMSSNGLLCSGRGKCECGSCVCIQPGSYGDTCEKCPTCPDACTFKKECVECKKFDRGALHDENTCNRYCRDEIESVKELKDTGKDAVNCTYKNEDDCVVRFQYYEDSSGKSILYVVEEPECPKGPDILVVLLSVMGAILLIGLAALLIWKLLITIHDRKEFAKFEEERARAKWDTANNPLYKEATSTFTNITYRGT
As to the kind of experiment: ELISA IIb-IIIa assay (fibrinogen binding to immobilized purified GPIIb-IIIa). The settings on record: inhibition of fibrinogen binding to purified GPIIb-IIIa. On the procedure: No. 1 - The ELISA IIb-IIIa Assay
PIIb-IIIa is coated onto microtiter plates. The coated support is then contacted with fibrinogen and with the test material (e.g., compounds of Formula I) and incubated for a sufficient time to permit maximal binding of fibrinogen to the immobilized GPIIb- Ila. Fibrinogen is typically provided at a concentration of about 5-50 nM and the test material can, if desired, be added at a series of dilution. Typical incubations are 2 to 4 hours at 25° C., the time and temperature being interdependent.
After incubation, the solution containing the fibrinogen and test material is removed and the level of binding of fibrinogen measured by quantitating bound fibrinogen to GPIIb-IIIa. Any suitable means of detection may be used, but it is convenient to employ labeled fibrinogen, for example using biotinylated labels. Such methods are well known in the art.
A. Description of Assays—Plate Assays
After purification, the receptors were stored in 0.1% Triton X-100 at 0.1-1.0 mg/ml.
The receptors were coated to the wells of 96-well flat-bottom ELISA plates (Linbro EIA-Plus microtiter plate, Flow Laboratories) after diluting 1:200 with a solution of 20 mM Tris-HCl, 150 mM NaCl, 1 mM CaCl2, pH 7.4, to reduce the Triton X-100 concentration to below its critical micellar concentration and adding an aliquot of 100 ul to each well. The wells were all allowed to incubate overnight at 4° C., and then aspirated to dryness. Additional sites were blocked by the addition of bovine serum albumin (BSA) at 35 mg/ml in the above buffer for two hours at 30° C. to prevent nonspecific binding. The wells were then washed once with binding buffer ([…] Tris-HCl, 100 mM NaCl 2 mM CaCl2, 1 mg/ml BSA).
The corresponding ligands (fibrinogen, von Willebrand Factor, or vitronectin) were conjugated to biotin using commercially available reagents and standard protocols. The labeled ligands were added to the receptor-coated wells at final concentration of 10 nM (100 ul/well) and incubated for 3 hours at 25° C. in the presence or absence of the test samples. After incubation, the wells are aspirated to dryness and bound ligand is quantitated.
Decreased color development is observed in wells incubated with test samples which inhibit binding of ligand to receptor.
On the technique in general: An ELISA detects its analyte on a solid surface through an enzyme-linked reagent.

[3] abbreviates: read-out: PRP (ADP-Citrate) IC50.

Take `CCCCS(=O)(=O)N[C@@H](CCC(=O)N1CCC2(CC1)CCN(c1ccncc1)CC2)C(=O)O` [Example 6, 2(S)-2-[(butylsulfonyl)amino]-5-oxo-5-[9-(4-pyridyl)-3,9-diazaspiro [5.5]undec-3-yl]pentanoic acid]: in assay [1] (read-out: PRP IC50), the IC50 – broadly, the concentration that gives 50% inhibition – worked out at 790 nM.
Take `O=C(O)CCCCC(=O)N1CCC2(CC1)CCN(c1ccncc1)CC2` [Example 2, 6-oxo-6-(9-(4-pyridyl)-3,9-diazaspiro[5.5]undec-3-yl)hexanoic acid]: the values for the IC50 in assay [2] and in assay [1] (read-out: PRP IC50) were 258 nM and 4500 nM, respectively.
For `O=C(O)CCCCCCC(=O)N1CCC2(CC1)CCN(c1ccncc1)CC2` [Example 4, 8-oxo-8-(9-(4-pyridyl)-3,9-diazaspiro[5.5]undec-3-yl)octanoic acid] the same measures were 1160 nM and 18000 nM.
In the case of `O=C(O)Cn1ccc2cc(C(=O)N3CCC4(CC3)CCN(c3ccncc3)C4)ccc21` [Example 53, 2-(5-{[2(4-pyridyl)-2,8-diazaspiro[4,5]dec-8-yl]carbonyl}-1H-1-indolyl) acetic acid], the IC50 came out at 47 nM in assay [2] and 952 nM in assay [1] (setting [3]).
Regarding `O=C(O)CN1CCN(C(=O)N2CCC3(CCN(c4ccncc4)CC3)C2)CC1=O` [Example 27, 2-(2-oxo-4-((8-(4-pyridyl)-2,8-diazaspiro[4.5]dec-2-yl)carbonyl)-4-piperazino) acetic acid], the IC50 came out at 35 nM in assay [2] and 568 nM in assay [1] (setting [3]).
In the case of `O=C(O)CCNC(=O)N1CCC2(CC1)CCN(c1ccncc1)C2` [Example 55, 3-({[2-(4-pyridyl)-2,8-diazaspiro[4.5]dec-8-yl]carbonyl}amino)propanoic acid], the IC50 amounted to 28900 nM in assay [2] and 34600 nM in assay [1] (setting [3]).
On to `O=C(O)CCCC(=O)N1CCC2(CC1)CCN(c1ccncc1)CC2` [Example 1, 5-oxo-5-(9-(4-pyridyl)-3,9-diazaspiro[5.5]undec-3-yl)pentanoic acid], for which the half-maximal inhibitory concentration (IC50) in assay [2] stood at 238 nM; in assay [1] (read-out: PRP IC50) it was 5100 nM.
For `O=C(O)CC(=O)N1CCC(C(=O)N2CCC3(CC2)CCN(c2ccncc2)CC3)CC1` [Example 12, 3-oxo-3-(4-{[9-(4-pyridyl)-3,9-diazaspiro[5.5]undec-3-yl]carbonyl}piperidino)propanoic acid] the same measures were 39 nM and 1770 nM.
On to `O=C(O)Cc1csc(NC(=O)CN2CCC3(CC2)CCN(c2ccncc2)C3)n1` [Example 54, 2-[2-({2-[2-(4-pyridyl)-2,8-diazaspiro[4.5]dec-8-yl]acetyl}amino)-1,3-thiazol-4-yl]acetic acid], for which the IC50 in assay [2] amounted to 2280 nM; in assay [1] (setting [3]) it was 32100 nM.
On to `CC(CC(=O)O)NC(=O)C1CCC2(CC1)CCN(c1ccncc1)CC2` (centres unmarked) [Example 17, 3-({[3-(4-pyridyl)-3-azaspiro[5.5]undec-9-yl]carbonyl}amino)butanoic acid], for which the concentration for half-maximal inhibition (IC50) in assay [1] (read-out: PRP (ADP) IC50) amounted to 14800 nM.
With `O=C(O)CCN1CCN(C(=O)N2CCC3(CCN(c4ccncc4)CC3)C2)CC1=O` [Example 25, 3-(2-oxo-4-((8-(4-pyridyl)-2,8-diazaspiro[4.5]dec-2-yl)carbonyl)piperazino)propanoic acid], the concentration for half-maximal inhibition (IC50) in assay [1] (setting [3]) was 8300 nM.
Still for that read-out and setting: the value for `O=C(O)COc1ccc(C(=O)N2CCC3(CC2)CCN(c2ccncc2)C3)cc1` [Example 52, 2-(4-{[2-(4-pyridyl)-2,8-diazaspiro[4.5]dec-8-yl]carbonyl}phenoxy) acetic acid] was 11300 nM; that for `O=C(O)CCCCC(=O)N1CCC2(CCN(c3ccncc3)CC2)C1` [Example 22, 6-oxo-6-(8-(4-pyridyl)-2,8-diazaspiro[4.5]dec-2-yl)hexanoic acid] was more than 80000 nM.
On to `O=C(N[C@@H](CCC(=O)N1CCC2(CC1)CCN(c1ccncc1)CC2)C(=O)O)OCc1ccccc1` [Example 5, 2(S)-2-{[(benzyloxy)carbonyl]amino}-5-oxo-5-[9-(4-pyridyl)-3,9-diazaspiro [5.5]undec-3-yl]pentanoic acid], for which the values for the half-inhibitory concentration (IC50) in assay [2] and in assay [1] (read-out: PRP IC50) were 7 nM and 4600 nM, respectively.
For `O=C(O)CCN1CCC(C(=O)N2CCC3(CC2)CCN(c2ccncc2)C3)CC1` [Example 49, 3-(4-{[2-(4-pyridyl)-2,8-diazaspiro[4.5]dec-8-yl]carbonyl}piperidino) propanoic acid] the same measures were 17 nM and 1010 nM.
On to `O=C(O)CC(=O)N1CCC(C(=O)N2CCC3(CCN(c4ccncc4)CC3)C2)CC1` [Example 19, 3-oxo-3-(4-{[8-(4-pyridyl)-2,8-diazaspiro[4.5]dec-2-yl]carbonyl}piperidino)propanoic acid], for which the IC50 was 28 nM in assay [2] and 1600 nM in assay [1] (setting [3]).
`O=C(O)CN1CCC(CC(=O)N2CCC3(CC2)CCN(c2ccncc2)C3)CC1` [Example 33, 2-(4-{2-oxo-2-[2-(4-pyridyl)-2,8-diazaspiro[4.5]dec-8-yl]ethyl}piperidino)acetic acid]: the half-maximal inhibitory concentration (IC50) in assay [1] (setting [3]) amounted to 80000 nM.
Turning to `CCCCOC(=O)N[C@@H](CCC(=O)N1CCC2(CC1)CCN(c1ccncc1)CC2)C(=O)O` [Example 9, 2(S)-2-[(butoxycarbonyl)amino]-5-oxo-5-[9-(4-pyridyl)-3,9-diazaspiro [5.5]undec-3-yl]pentanoic acid], the half-inhibitory concentration (IC50) stood at 2 nM in assay [2] and 722 nM in assay [1] (read-out: PRP IC50).
Turning to `CCCCOC(=O)N[C@@H](CNC(=O)C1CCC2(CC1)CCN(c1ccncc1)CC2)C(=O)O` [Example 16, (2S)-2-{[(butyloxyl)carbonyl]amino}-3-({[3-(4-pyridyl)-3-azaspiro[5.5]undec-9-yl]carbonyl}amino)propanoic acid], in assay [1] (read-out: PRP (ADP) IC50), the IC50 is 1880 nM.
Consider `O=C(O)CN1CCC(N2CCC3(CCN(c4ccncc4)C3)CC2)CC1` [Example 32, 2-{4-(2-(4-pyridyl)-2,8-diazaspiro[4.5]dec-8-yl]piperidino}acetic acid], for which the IC50 in assay [1] (setting [3]) was 9500 nM.
Take `Cc1ccc(S(=O)(=O)N[C@@H](CCC(=O)N2CCC3(CC2)CCN(c2ccncc2)CC3)C(=O)O)cc1` [Example 7, 2(S)-2-{[(4-methylphenyl)sulfonyl]amino}-5-oxo-5-[9-(4-pyridyl)-3,9-diazaspiro [5.5]undec-3-yl]pentanoic acid]: the half-maximal inhibitory concentration (IC50) in assay [1] (read-out: PRP IC50) is 77 nM.
As to `CC(CNC(=O)C1CCC2(CC1)CCN(c1ccncc1)CC2)CC(=O)O` (centres unmarked) [Example 18, 3-methyl-4-({[3-(4-pyridyl)-3-azaspiro[5.5]undec-9-yl]carbonyl}amino) butanoic acid], in assay [1] (read-out: PRP (ADP) IC50), the IC50 stood at 3000 nM.
With `O=C(O)COC1CCN(CC(=O)N2CCC3(CC2)CCN(c2ccncc2)C3)CC1` [Example 50, 2-[(1-{2-oxo-2-[2-(4-pyridyl)-2,8-diazaspiro[4.5]dec-8-yl]ethyl}-4-piperidyl)oxyl]acetic acid], the 50% inhibitory concentration (IC50) in assay [1] (read-out: PRP IC50) is 80000 nM.
For the molecule `CN(CC(=O)O)C1CCN(C(=O)N2CCC3(CC2)CCN(c2ccncc2)C3)CC1` [Example 46, 2-[methyl(1-{[2-(4-pyridyl)-2,8-diazaspiro[4.5]dec-8-yl]carbonyl}-4-piperidyl)amino]acetic acid], the half-inhibitory concentration (IC50) in assay [1] (read-out: PRP IC50) turned out to be 10000 nM.
Consider `O=C(O)CCN1CCN(C(=O)N2CCC3(CC2)CCN(c2ccncc2)C3)CC1=O` [Example 30, 3-(2-oxo-4-((2-(4-pyridyl)-2,8-diazaspiro[4.5]dec-8-yl)carbonyl)piperazino)propanoic acid], for which the IC50 in assay [1] (setting [3]) was 1290 nM.
Same read-out and setting: as for `CCCCOC(=O)N[C@@H](CCC(=O)N1CCC2(CC1)CCN(c1ccncc1)C2)C(=O)O` [Example 35, (2S)-2-[(butoxycarbonyl)amino]-5-oxo-5-[2-(4-pyridyl)-2,8-diazaspiro [4.5]dec-8-yl]pentanoic acid], the figure is 4000 nM.
